Data on four compounds can be found in publication PMC10865344, “Self-Assembly and Antimicrobial Activity of Lipopeptides Containing Lysine-Rich Tripeptides” (Biomacromolecules, 2024).

Values after ≈ are worked out from the molar mass of the structure shown. Where a SMILES comes first, the peptide text is derived from it. [ ]: non-standard residue; d: D form. The star is where a group is joined. Palmitoyl = CCCCCCCCCCCCCCCC(=O)*

Data set [1] concerns L929 murine fibroblast cell lines. The settings on record: 48 h, 0.05 wt %.
Method: L929 murine fibroblast cell lines (ECACC General Cell Collection) were grown in Dulbecco’s modified Eagle’s medium (DMEM) supplemented with 10% fetal bovine serum (FBS), 20 mM HEPES, and 1% GlutaMAX. The cells were maintained at pH 7.4, 37 °C, and 5% CO2 in 25 cm^2 cell culture flasks.
For the cytotoxicity assay, approximately 6000 cells per well were seeded in 96-well plates. The medium was exchanged after 24 h by adding solutions of different concentrations of the lipopeptides ranging from 0.05 to 0.0001 wt %. After 48 h of treatment, cell viability was assessed using an MTT [3-(4, 5-dimethylthiazolyl-2)-2, 5-diphenyltetrazolium bromide] assay. Here, the culture medium was removed, followed by the addition of a solution of MTT in DMEM medium at a concentration of 0.5 mg/mL. The plate was incubated for 4 h at 37 °C. Next, to dissolve the formazan crystals, dimethyl sulfoxide was added. Thereafter, using an automatic plate reader, the absorbance was measured at 560 nm. Cell survival was expressed as a percentage of viable cells in the presence of peptides compared with control cells grown in their absence. The assay was repeated three times, and the results were averaged. Statistical significance was tested using multiple Student’s t-tests.
Here, the cytotoxicity of all the lipopeptides was investigated by MTT assays on L929 murine fibroblast cell lines. […] For all the lipopeptides, the cytotoxicity results were obtained after 48 h of cell culture.
A further data set has as its system E. coli K-12. The format is cell-based, Escherichia coli. The following applies: K-12, 24 h. Here is the method:
(§1) Antibacterial susceptibility testing was performed using a broth microdilution assay, against both Gram-negative and Gram-positive bacteria, as previously described by Kourmentza et al.[44] The target strains used were E. coli K-12, S. enterica NCTC 5188, and S. aureus NCDO 949. The test compounds were dissolved in water, filter-sterilized, and further diluted in Mueller-Hinton broth (MHB) which was used as the growth medium for the tests. 2-fold dilutions were performed, and 100 μL of each dilution was transferred to each well of 96-well plates. The final test concentration range of the compounds was 1.95–1000 μg/mL. Additionally, the 96-well plates contained wells with 200 μL of growth medium that served as sterility controls and wells filled with 100 μL of growth medium and 100 μL of inoculum that served as growth controls. The remaining wells were inoculated with 100 μL of a bacterial culture. The bacterial suspensions were prepared from overnight cultures in MHB. The bacterial density was adjusted to 0.5 McFarland (standard), and the suspensions were subsequently diluted 100 times using the growth medium. The 96-well plates were incubated at 37 °C for 24 h and the OD at 620 nm of the wells was assessed for growth. The MIC was defined as the lowest concentration of the antimicrobial agent tested that prevented any discernible growth after 24 h.
(§2) Since all the molecules are biocompatible at low concentrations, their antibacterial efficacy was examined in preliminary tests using a broth microdilution assay against both Gram-negative and Gram-positive bacteria. Here, E. coli K-12, S. enterica NCTC 5188 were cultured as Gram-negative bacteria and S. aureus NCDO 949 was used as a model Gram-positive bacterium. The lipopeptides were dissolved in water, filter-sterilized, and further diluted in Mueller-Hinton broth, which was used as the growth medium for the experiment to determine MIC values. […] E. coli was most susceptible to compounds P1 and P1D with MICs falling within the range of 15.63–31.25 μg/mL (Table 1). […] Overall, the P1 analogues have lower MIC values than those for the P2 analogues, especially for S. enterica.

In the next data set the test system is S. aureus NCDO 949. The class given is cell-based, Staphylococcus aureus. The following applies: NCDO 949, 24 h. As to the method:
as §1, §2

A short description of data set [2]: Critical aggregation concentration (CAC) by ANS fluorescence probe assay. The class given is physicochemical. The settings on record: 2 × 10^–3 wt % ANS solution, λex = 356 nm, emission 486 nm, 25 °C, aqueous solution. As to the method:
Fluorescence experiments were carried out using a Varian Cary Eclipse spectrofluorometer in 4 mm inner-width quartz cuvettes. Excitation and emission bandwidths of 2.5 nm were used as the experimental settings. The temperature was set at 25 °C for all of the experiments. The CAC value for all of the lipopeptides was assessed by fluorescence experiments with 8-anilo-1-naphthalenesulfonic acid (ANS). ANS is a suitable fluorophore to determine the CAC value, due to changes in local hydrophobicity.[43] For this assay, various concentrations of samples were prepared in 2 × 10^–3 wt % ANS solution. Fluorescence spectra were recorded from 400 to 670 nm with λex = 356 nm.
To determine the CAC value of individual lipopeptides, the results were plotted as I/I0 versus log(c/wt %), where I stands for the maximum fluorescence intensity of ANS containing the various concentrations of samples and I0 stands for the intensity for the control, i.e., ANS solution without lipopeptide.
To determine CAC values of these lipopeptides, fluorescence probe assays using ANS were performed.[43] Emission spectra of the four lipopeptides were collected at different concentrations after excitation at 356 nm. At higher concentrations, an emission peak at 486 nm is visible. […] The lower CAC values for P2 and P2D are due to the higher hydrophobicity of tryptophan than tyrosine.

Data set [3] can be described thus: SAXS of micelles, core-shell sphere form factor and hard sphere structure factor fit. The class given is physicochemical. Here is the method: SAXS experiments were performed on beamline B21 at Diamond (Didcot, UK). The sample solutions were loaded into the 96-well plate of an EMBL BioSAXS robot and then injected via an automated sample exchanger into a quartz capillary (1.8 mm internal diameter) with the X-ray beam. The quartz capillary was enclosed in a vacuum chamber to avoid parasitic scattering. After the sample was injected into the capillary and reached the X-ray beam, the flow was stopped during SAXS data acquisition. Beamline B21 operates with a fixed camera length (3.9 m) and fixed energy (12.4 keV). The images were captured by using a PILATUS 2 M detector. Data processing was performed by using the dedicated beamline software ScÅtter.
More quantitative information about these self-assembled nanostructures was obtained from SAXS, also performed for 1 wt % aqueous solutions of the four lipopeptides. Consistent with cryo-TEM, the form factors for P1, P1D, P2, and P2D can be fitted based on the core–shell sphere structure corresponding to a hydrophobic core and peptide corona. The fit parameters listed in SI Table S1 show outer radii in the range (2.47–2.90 ± 0.4) nm, consistent with cryo-TEM. The inner core radius is 1.45–1.56 nm, which is consistent with the length of an extended C16 lipid chain plus the first hydrophobic amino acid (Y or W). […] The shell thickness may be compared to the length of a tripeptide in an extended structure (such as PPII), 3 × 0.31 nm = 0.93 nm (residue translation value taken from ref ([55])) and is in good agreement with this value for P1, P1D, and P2D. […] The form factor parameters are the same within uncertainties for the other three lipopeptides. The association number can be estimated for P1 (similar values are expected for P1D and P2D since the micelle radius and molecular volume are similar) using the volume of a micelle Vmic = 4/3π(2.52 nm)^3 = 67.0 nm^3, while the molecular volume Vmol = 0.62 nm^3 was obtained from the hydrophobicity surface/molecular volume calculation in UCSF Chimera.[56] This leads to an estimated association number p = Vmic/Vmol = (108 ± 20). […]

In the next data set the test system is S. enterica NCTC 5188. The experiment in a line: Antibacterial susceptibility, broth microdilution assay (MIC). The format is cell-based, Salmonella enterica. The following applies: S. enterica NCTC 5188, broth microdilution in Mueller-Hinton broth, 37 °C, 24 h, OD 620 nm, test range 1.95–1000 μg/mL. As to the method:
as §1, with “24 h. […]” for “24 h.”
Background: In broth dilution the organism is exposed to a series of concentrations in liquid medium.

The mark [4] stands for this setting: 1 wt% sample at native pH = 4, core-shell sphere form factor.

Usually cell viability stands for the share of living cells, or the viability signal relative to a control. High values mean better survival, low ones a greater loss of cells. By MIC is commonly meant the lowest concentration found to suppress growth. The low end stands for greater potency, the high end for weaker potency. In data set [1], `CCCCCCCCCCCCCCCC(=O)N[C@@H](Cc1ccc(O)cc1)C(=O)N[C@H](CCCCN)C(=O)N[C@H](CCCCN)C(N)=O` [P1D] (Palmitoyl-Tyr-[dK]-[dK]-NH2) yielded a cell viability of 44.1 ± 7.6%. Also, the minimal inhibitory concentration (MIC) was 15.63 to 31.25 mg/L against E. coli K-12 and 31.25 mg/L (≈ 46.3 µM) against S. aureus NCDO 949. For the same compound, the “lower range MIC value for E. coli as molar concentration” value (“lower range MIC value for E. coli” for short) in the data set on E. coli K-12 is 22 to 23 µM.
On to `CCCCCCCCCCCCCCCC(=O)N[C@@H](Cc1ccc(O)cc1)C(=O)N[C@@H](CCCCN)C(=O)N[C@@H](CCCCN)C(N)=O` [P1] (Palmitoyl-Tyr-Lys-Lys-NH2), for which the cell viability in data set [1] worked out at 53.1 ± 5.1%. Also, in the data set with E. coli K-12, the MIC lay in the range of 15.63 to 31.25 mg/L and the “lower range MIC value for E. coli” value is 22 to 23 µM. The MIC against S. aureus NCDO 949 lay within 31.25 to 62.5 mg/L.
Consider `CCCCCCCCCCCCCCCC(=O)N[C@@H](Cc1c[nH]c2ccccc12)C(=O)N[C@H](CCCCN)C(=O)N[C@H](CCCCN)C(N)=O` [P2D] (Palmitoyl-Trp-[dK]-[dK]-NH2), for which the “CAC (concentration at the breakpoint of I/I0 at 486 nm vs concentration)” value in data set [2] is 0.00257 ± 0.05 wt %. In data set [3] (setting [4]), the “Ri, micelle inner core radius” value came out at 15.1 Å. Also, the “Ro, micelle outer radius” value in data set [3] (setting [4]) came to 26.3 Å. The “RHS, hard sphere radius” value in data set [3] (1 wt% sample at native pH = 4, hard sphere structure factor) is recorded as 79.3 Å. Moreover, the MIC was 62.5 mg/L (≈ 89.5 µM) against S. enterica NCTC 5188, 31.25 to 62.5 mg/L in the data set on E. coli K-12 and 31.25 to 62.5 mg/L in the data set on S. aureus NCDO 949. The same compound came in with a cell viability in data set [1] of 13.0 ± 1.1%.
On to `CCCCCCCCCCCCCCCC(=O)N[C@@H](Cc1c[nH]c2ccccc12)C(=O)N[C@@H](CCCCN)C(=O)N[C@@H](CCCCN)C(N)=O` [P2] (Palmitoyl-Trp-Lys-Lys-NH2), for which the MIC against S. enterica NCTC 5188 was in the range of 62.5 to 250 mg/L; against E. coli K-12 it was 15.63 to 62.5 mg/L; in the data set with S. aureus NCDO 949, 31.25 to 62.5 mg/L. The cell viability in data set [1] stood at 20.2 ± 2.8%. Also, the “lower range MIC value for E. coli” value in the data set on E. coli K-12 is 22 to 23 µM.
